# Structures can show the parent of a compound that is named as a salt.
# Key:
# [1] = Organ coefficient of mice; format: in vivo, ICR mouse; conditions: alloxan mice, positive control 230 mg/kg
# Description: The mice were subjected to euthanasia and dissection. Hearts, livers, spleens, lungs, kidneys and pancreases of the mice were weighed, imaged and recorded, respectively. The organ coefficients were calculated. In addition, pancreases from each group were respectively immersed into formalin-containing bottles, and the sections were sent for pathological examination.
# After administration of the test sample, the hearts, livers, spleens, lungs, kidneys and pancreases of the mice in each group were weighed respectively, and organ coefficients of each group were compared.
# Body weight of mice = format: in vivo, ICR mouse; conditions: alloxan mice, positive control 230 mg/kg
# Description: The mice were weighed after 1-day adaptive feed, and the mice were weighed once a week and recorded. The administration of test sample to the rats lasted for 45 days, and the administration to mice lasted for 55 days.
# Body weight of rats = format: in vivo, SD rat; set-up: unit not given here; conditions: diabetic rats, positive control 170 mg/kg
# Description: The rats were weighed after 1-day adaptive feed, and the rats were weighed once a week and recorded.
# alloxan-induced mice = test: Fasting blood glucose and glucose tolerance in alloxan hyperglycemia model mice; format: in vivo, ICR mouse; conditions: for Blood glucose decreasing rate of the mice: positive control 230 mg/Kg; for Blood glucose of the mice: positive control 230 mg/kg
# Description: (§1) Method for preparing the solution of the test sample (500 mg/kg): 2.3011 g of the test sample was precisely weighed and 46 mL of distilled water was added to prepare a solution of 0.05 g/mL, i.e., high-dose group of the test sample (500 mg/kg, 1 mL/100 g), which was equal to 30 times the recommended amount for human.
# as §1, with “(170” for “(500”, “0.6970” for “2.3011”, “41” for “46”, “0.017” for “0.05”, “medium-dose” for “high-dose”, “10” for “30”
# as §1, with “(85” for “(500”, “0.3396” for “2.3011”, “40” for “46”, “0.0085” for “0.05”, “low-dose” for “high-dose”, “5” for “30”
# Method for preparing the positive control sample: the metformin hydrochloride tablet was milled into fine powders by a mortar, 0.1470 g powder was precisely weighed and transferred to a 10 mL-centrifugal tube. 5 mL of distilled water was added by a pipette to prepare a solution with a concentration of 0.023 g/mL, i.e., metformin positive control group for mouse (230 mg/kg, 0.1 ml/10 g), which was equal to 13.5 times the recommended amount for human.
# The administration of test sample to the rats lasted for 45 days, and the administration to mice lasted for 55 days.
# After 3-day of adaptive housing with normal feeding, 15 mice were randomly chosen and subjected to fasting for 3 to 5 hours. The fasting blood glucose value was measured as the basal blood glucose value of this batch of animals. Thereafter, the mice were subjected to fasting for 24 hours (with free access to water). Except for the blank group and the negative control group, 96 mg/kg of alloxan (fresh prepared) were injected via caudal vein to establish the model, at an administration amount of 0.1 mL/10 g. 4 days later, the animals were fasted for 3 to 5 hours and the blood glucose was tested. Animals with blood glucose of 10 to 25 mmol/L were considered as hyperglycemia model animals. The fasting blood glucose value of mice was tested every two week. After the experiments, animals in each group were fasted for 3 to 4 hours, and the fasting blood glucose, glucose tolerance, blood glucose decreasing rate and the area under the blood glucose curve were tested.
# [2] = Organ coefficient of rats; format: in vivo, SD rat; conditions: diabetic rats, positive control 170 mg/kg
# Description: The rats were subjected to euthanasia and dissection. Hearts, livers, spleens, lungs, kidneys and parts of the pancreases of the rats were weighed, imaged and recorded, respectively. The organ coefficients were calculated. In addition, pancreases from each group were respectively immersed into formalin-containing bottles.
# diabetic rats [3] = test: Cholesterol level and triglyceride level in serum of rats; format: in vivo, SD rat; conditions: positive control 170 mg/kg
# Description: After the experiment, the rats in each group were fasted for 3 to 4 hours and peritoneal injected with pentobarbital sodium solution (1 mL/100 g) for anesthesia. 8 mL of blood was taken from the femoral artery and centrifuged at 4500 r for 6 minutes at 4° C. The serum was taken and the cholesterol level was tested by a cholesterol kit, and the triglyceride level was tested by a triglyceride kit.
# diabetic rats [4] = test: Fasting blood glucose and glucose tolerance in diabetic rats (high calorie feed plus alloxan); format: in vivo, SD rat; conditions: for Blood Glucose at 0 hour / Blood Glucose at 2th hour / Blood Glucose at 0.5 hour: rats, positive control 170 mg/kg
# Description: as §1
# as §1, with “(170” for “(500”, “0.6970” for “2.3011”, “41” for “46”, “0.017” for “0.05”, “medium-dose” for “high-dose”, “10” for “30”
# as §1, with “(85” for “(500”, “0.3396” for “2.3011”, “40” for “46”, “0.0085” for “0.05”, “low-dose” for “high-dose”, “5” for “30”
# Method for preparing the positive control sample: the metformin hydrochloride tablet was milled into fine powders by a mortar, 0.9329 g powder was precisely weighed and transferred to a 100 mL-beaker. 43 mL of distilled water was added by using a 100 mL-graduated cylinder, preparing solution with a concentration of 0.017 g/mL, i.e., metformin positive control group for rat (170 mg/kg, 1 ml/100 g), which was equal to 10 times the recommended amount for human.
# After 5-day of adaptive housing with normal feeding, the rats were fasted for 3 to 4 hours and blood samples were taken from the tails. The fasting blood glucose value, which was the blood glucose value before administration of glucose (0 hour), was tested. After administration of 2.5 g/kgBW glucose, the blood glucose level was tested at the 0.5 hour and the 2nd hour as the basal value of that batch of animals. The rats were divided into 6 groups according to the blood glucose value at 0 hour and the 0.5 hour, including one blank group, one positive control group, one model group and 3 dosing groups of the test sample. There were 20 rats in the high-dose group, and 18 rats in the other groups. The blank group was not treated. The positive control group was administered with metformin solution by intragastric gavage. The 3 dosing groups of the test sample were administered with test sample solutions of different concentrations by intragastric gavage. The model group was administered with the solvent of the same volume. […] Normal feeds were provided to all groups. One week later, high calorie feeds were provided to the model group, positive control group and three dosing groups of the test sample. 30 days after the feeding, the rats were fasted for 24 hours. The model group and the three dosing groups of the test sample were respectively peritoneal injected with alloxan of 200 mg/kgBW (the injection amount was […] weight) on the base of high calorie feed. The model group and 3 dosing groups of the test sample were continuously fed on high calorie feeds for 3 days. When the experiment ended, animals in each group were fasted for 3 to 4 hours, and the fasting blood glucose, glucose tolerance and area under the blood glucose curve were measured.
smiles,measurement,setting,value
"CN(C)C(=N)N=C(N)N [metformin, metformin hydrochloride]",Heart Coefficient,[1],0.50 ± 0.09
same,Kidney Coefficient,[1],2.17 ± 0.61
same,Liver Coefficient,[1],4.96 ± 1.67
same,Lung Coefficient,[1],0.67 ± 0.14
same,Pancreas Coefficient,[1],0.76 ± 0.31
same,Spleen Coefficient,[1],0.47 ± 0.37
same,Changes of body weight of mice,Body weight of mice; 1 d,21.1 ± 2.0 g
same,Changes of body weight of mice,Body weight of mice; 2 d,23.3 ± 2.3 g
same,Changes of body weight of mice,Body weight of mice; 6 d,22.1 ± 3.1 g
same,Changes of body weight of mice,Body weight of mice; 8 d,22.8 ± 5.8 g
same,Changes of body weight of mice,Body weight of mice; 11 d,23.1 ± 4.0 g
same,Changes of body weight of mice,Body weight of mice; 20 d,25.6 ± 5.4 g
same,Changes of body weight of mice,Body weight of mice; 27 d,25.3 ± 4.2 g
same,Changes of body weight of mice,Body weight of mice; 34 d,27.8 ± 4.1 g
same,Changes of body weight of mice,Body weight of mice; 41 d,29.1 ± 4.8 g
same,Changes of body weight of mice,Body weight of mice; 48 d,27.0 ± 5.4 g
same,Changes of body weight of mice,Body weight of mice; 55 d,27.2 ± 5.2 g
same,Weight changes of rats,Body weight of rats; 3 d,207.00 ± 10.91
same,Weight changes of rats,Body weight of rats; 6 d,225.22 ± 12.01
same,Weight changes of rats,Body weight of rats; 8 d,244.28 ± 10.93
same,Weight changes of rats,Body weight of rats; 12 d,277.50 ± 8.25
same,Weight changes of rats,Body weight of rats; 22 d,325.89 ± 18.39
same,Weight changes of rats,Body weight of rats; 28 d,373.67 ± 21.40
same,Weight changes of rats,Body weight of rats; 35 d,396.22 ± 23.32
same,Weight changes of rats,Body weight of rats; 42 d,403.83 ± 21.22
same,Weight changes of rats,Body weight of rats; 45 d,361.19 ± 27.43
same,Blood glucose decreasing rate of the mice,alloxan-induced mice; 45 d,−20.06% ± 0.30
same,Blood glucose decreasing rate of the mice,alloxan-induced mice; 55 d,21.60% ± 0.48
same,Blood glucose of the mice,alloxan-induced mice; 0 d,22.87 ± 3.66 mmol/L
same,Blood glucose of the mice,alloxan-induced mice; 16 d,13.60 ± 4.82 mmol/L
same,Blood glucose of the mice,alloxan-induced mice; 30 d,15.57 ± 5.85 mmol/L
same,Blood glucose of the mice,alloxan-induced mice; 45 d,18.28 ± 5.86 mmol/L
same,Blood glucose of the mice,alloxan-induced mice; 55 d,17.93 ± 10.23 mmol/L
same,Effect on fasting blood glucose vs model group (in words),alloxan-induced mice; positive control group,significantly improved symptom of the hyperglycemia
same,Heart Coefficient,[2],0.36 ± 0.06
same,Kidney Coefficient,[2],0.88 ± 0.20
same,Liver Coefficient,[2],3.36 ± 0.48
same,Lung Coefficient,[2],0.53 ± 0.15
same,Pancreas Coefficient,[2],0.37 ± 0.13
same,Spleen Coefficient,[2],0.16 ± 0.09
same,Cholesterol Index,diabetic rats [3],3.71 ± 1.57
same,Triglyceride Index,diabetic rats [3],9.47 ± 5.29
same,Area under the blood glucose curve vs model group (in words),"diabetic rats [4]; diabetic rats, glucose tolerance test",showed significant differences
same,Effect on fasting blood glucose vs model group (in words),"diabetic rats [4]; diabetic rats, positive control group",significantly improved symptom of the hyperglycemia
same,Blood Glucose at 0 hour,diabetic rats [4]; 4D,6.00 ± 0.87
same,Blood Glucose at 2th hour,diabetic rats [4]; 4D,5.75 ± 0.97
same,Blood Glucose at 0.5 hour,diabetic rats [4]; 4D,8.33 ± 1.54
same,Blood Glucose at 0 hour,diabetic rats [4]; 45D,12.05 ± 4.98
same,Blood Glucose at 2th hour,diabetic rats [4]; 45D,13.31 ± 5.83
same,Blood Glucose at 0.5 hour,diabetic rats [4]; 45D,15.98 ± 4.87

# From patent publication US20190060391A1, “POWDER FORMULATION HAVING HY[…] HYP[…] AND METHOD FOR PREPARING THE SAME” (INFINITUS (CHINA) COMPANY LTD., priority 2017, published 2019)
